Test results published in US20240294548A1, “TRICYCLIC SULTAMS AND SULFAMIDES AS ANTITUMOR AGENTS” (PELOTON THERAPEUTICS INC., priority 2021, published 2024).

Experiments:
[1] = tested on: HCT116 human colorectal carcinoma cells; test: CellTiter-Glo assay (cell viability); type: cell-based; settings: HCT-116, 72 h, HCT116 cells, 3 days, CellTiter-Glo luminescence, read-out: CTG IC50
Outline: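 Cells (3,000/well) in DMEM/10% FBS were treated next day with 3-fold serial dilutions (final top […]) in triplicate for 3 days. Viability read by CellTiter-Glo luminescence; IC50 derived from dose-response.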

[2] = molecular target: T1, DCAF15 RBM39 ternary complex (Homo sapiens, UniProt Q14498+Q66K64, DEL276-383); test: DCAF15 RBM39 complex formation assay (FRET); type: biochemical; settings: FRET ratio, 20 nM DDB1DB/DCAF15, 50 nM RBM39 R1R2, overnight at 4° C.; read-out: DCAF15 RBM39 ternary complex EC50
T1 construct: Amino acids 150 to 331 of RBM39 were cloned into pGEX4T3; GST (from the pGEX4T3 vector, own knowledge) followed by a TEV cleavage site (N); made in house; host or cells: Sf9 baculovirus (DDB1ΔB/DCAF15); E. coli (RBM39 R1R2)
T1 sequence (Q66K64 with tags, fused parts or gaps DEL276-383): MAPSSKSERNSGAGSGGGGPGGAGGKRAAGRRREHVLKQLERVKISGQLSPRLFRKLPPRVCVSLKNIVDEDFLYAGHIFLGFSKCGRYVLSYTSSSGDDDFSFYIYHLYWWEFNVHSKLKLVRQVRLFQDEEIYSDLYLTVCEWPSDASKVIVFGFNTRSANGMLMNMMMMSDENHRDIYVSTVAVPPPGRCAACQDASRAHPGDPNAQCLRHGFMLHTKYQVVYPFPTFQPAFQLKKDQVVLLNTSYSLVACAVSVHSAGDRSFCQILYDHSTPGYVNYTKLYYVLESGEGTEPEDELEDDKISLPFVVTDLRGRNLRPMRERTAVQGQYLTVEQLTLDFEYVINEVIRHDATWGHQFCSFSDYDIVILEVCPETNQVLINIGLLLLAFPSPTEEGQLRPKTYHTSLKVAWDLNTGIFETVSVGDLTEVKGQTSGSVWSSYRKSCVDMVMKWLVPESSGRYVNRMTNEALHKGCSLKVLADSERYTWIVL
T1 sequence (Q14498 150-331, stated change not applied): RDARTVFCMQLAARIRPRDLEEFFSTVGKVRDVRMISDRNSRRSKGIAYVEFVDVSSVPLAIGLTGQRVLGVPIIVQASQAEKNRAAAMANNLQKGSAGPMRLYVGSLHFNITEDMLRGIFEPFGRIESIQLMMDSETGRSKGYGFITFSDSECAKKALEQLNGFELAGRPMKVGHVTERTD
Outline: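 TR-FRET between Eu-anti-His and APC-anti-FLAG, using 20 nM His-DCAF15/DDB1DB (Sf9) with 50 nM RBM39 RRM1–RRM2 (E. coli) in HEPES pH 7.5 buffer. Compounds run as a 14-point 3-fold series from 1 μM, incubated overnight at 4 °C.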

[3] = molecular target: T2, DCAF15 (DDA1-DDB1ΔB-DCAF15Δpro) (Homo sapiens, UniProt Q66K64, DEL276-383); test: DCAF15 displacement assay (displacement FRET, probe PT7795); type: binding; settings: displacement of PT7795 (300 nM), compound 0.01 to 100 μM, 18 hours incubation; read-out: DCAF15 displacement IC50
T2 construct: made in house; host or cells: Sf9 (Bac-to-Bac baculovirus)

SMILES	IC50 [1]	EC50 [2]	IC50 [3]
COCCN1Cc2cc(C)c3c(Cl)c[nH]c3c2NS1(=O)=O [Compound 87, 7-chloro-3-(2-methoxyethyl)-6-methyl-1,3,4,9-tetrahydro-[1,2,6] thiadiazino[4,3-g]indole 2,2-dioxide]	258 nM	1.8 nM	6220 nM
O=S1(=O)Nc2c(cc(Cl)c3c(Cl)c[nH]c23)CN1Cc1ccc(Cl)cc1 [Compound 13, 6,7-dichloro-3-(4-chlorobenzyl)-1,3,4,9-tetrahydro-[1,2,6] thiadiazino[4,3-g]indole 2,2-dioxide]	810 nM	6.2 nM	36100 nM
O=S1(=O)Nc2c(cc(Cl)c3c(Cl)c[nH]c23)CN1CC1CCNCC1 [Compound 39, 6,7-dichloro-3-(piperidin-4-ylmethyl)-1,3,4,9-tetrahydro-[1,2,6]thiadiazino[4,3-g]indole 2,2-dioxide]	4990 nM	1.2 nM	285 nM
CC1(C)Cc2cc(Cl)c3c(Cl)c[nH]c3c2NS1(=O)=O [Compound 66, 6,7-dichloro-3,3-dimethyl-1,3,4,9-tetrahydro-[1,2]thiazino[4,3-g]indole 2,2-dioxide]	5000 nM	108 nM	≥ 100000 nM
O=S1(=O)Nc2c(cc(Cl)c3c(Cl)c[nH]c23)CN1CC1CC(F)(F)C1 [Compound 85, 6,7-dichloro-3-((3,3-difluorocyclobutyl)methyl)-1,3,4,9-tetrahydro-[1,2,6] thiadiazino[4,3-g]indole 2,2-dioxide]	302 nM	2 nM	8380 nM
O=S1(=O)Nc2c(cc(Cl)c3c(Cl)c[nH]c23)CN1Cc1ccncn1 [Compound 52, 6,7-dichloro-3-(pyrimidin-4-ylmethyl)-1,3,4,9-tetrahydro-[1,2,6] thiadiazino[4,3-g]indole 2,2-dioxide]	93.7 nM	0.6 nM	580 nM
O=S1(=O)Nc2c(cc(Cl)c3c(Cl)c[nH]c23)CN1Cc1cnccn1 [Compound 59, 6,7-dichloro-3-(pyrazin-2-ylmethyl)-1,3,4,9-tetrahydro-[1,2,6] thiadiazino[4,3-g]indole 2,2-dioxide]	120 nM	2 nM	325 nM
O=S1(=O)Nc2c(cc(Cl)c3c(Cl)c[nH]c23)CN1Cc1ccccc1 [Compound 6, 3-benzyl-6,7-dichloro-1,3,4,9-tetrahydro-[1,2,6]thiadiazino[4,3-g]indole 2,2-dioxide]	608 nM	3.1 nM	5260 nM
O=S1(=O)Nc2c(cc(Cl)c3c(Cl)c[nH]c23)CN1Cc1cccnn1 [Compound 42, 6,7-dichloro-3-(pyridazin-3-ylmethyl)-1,3,4,9-tetrahydro-[1,2,6]thiadiazino[4,3-g]indole 2,2-dioxide]	298 nM	0.7 nM	588 nM
N#Cc1ccc(CN2Cc3cc(Cl)c4c(Cl)c[nH]c4c3NS2(=O)=O)cc1 [Compound 50, 4-((6,7-dichloro-2,2-dioxido-4,9-dihydro-[1,2,6]thiadiazino[4,3-g]indol-3(1H)-yl)methyl) benzonitrile]	881 nM	1.1 nM	5710 nM
CN1CCC(CN2Cc3cc(Cl)c4c(Cl)c[nH]c4c3NS2(=O)=O)CC1 [Compound 83, 6,7-dichloro-3-((1-methylpiperidin-4-yl)methyl)-1,3,4,9-tetrahydro-[1,2,6]thiadiazino[4,3-g]indole 2,2-dioxide]	66.9 nM	2.3 nM	781 nM
O=S1(=O)Nc2c(cc(Cl)c3c(Cl)c[nH]c23)CN1Cc1ccc(Cl)nc1 [Compound 12, 6,7-dichloro-3-((6-chloropyridin-3-yl)methyl)-1,3,4,9-tetrahydro-[1,2,6]thiadiazino[4,3-g]indole 2,2-dioxide]	125 nM	0.7 nM	1110 nM
